Data reported in ChEMBL document CHEMBL5647693, “Molecular basis underlying resistance to Mps1/TTK inhibitors” (Oncogene, 2016).

Key:
Experiment in all cases: cells
Type in all cases: functional, cell-based
HCT-116 [1] = conditions: Homo sapiens, HCT-116, 120 h
DLD-1 [2] = conditions: Homo sapiens, DLD-1, 120 h
DLD-1 [3] = conditions: Homo sapiens, DLD-1, 120 h; remark: listed apart in the source
U2OS = conditions: Homo sapiens, 120 h
HCT-116 [4] = conditions: Homo sapiens, HCT-116, 120 h; remark: listed apart in the source
DLD-1 [5] = conditions: Homo sapiens, DLD-1, 120 h; remark: listed apart in the source
HeLa [6] = conditions: Homo sapiens, 120 h
HeLa [7] = conditions: Homo sapiens, 120 h; remark: listed apart in the source
HeLa [8] = conditions: Homo sapiens, 120 h; remark: listed apart in the source
HCT-116 [9] = conditions: Homo sapiens, HCT-116, 120 h; remark: listed apart in the source
HCT-116 [10] = conditions: Homo sapiens, HCT-116, 120 h; remark: listed apart in the source
HeLa [11] = conditions: Homo sapiens, 120 h; remark: listed apart in the source

| IC50 (HCT-116 [1]) [nM] | IC50 (DLD-1 [2]) [nM] | IC50 (DLD-1 [3]) [nM] | IC50 (U2OS) [nM] | IC50 (HCT-116 [4]) [nM] | IC50 (DLD-1 [5]) [nM] | IC50 (HeLa [6]) [nM] | IC50 (HeLa [7]) [nM] | IC50 (HeLa [8]) [nM] | IC50 (HCT-116 [9]) [nM] | IC50 (HCT-116 [10]) [nM] | IC50 (HeLa [11]) [nM] | Structure (SMILES) |
| --- | --- | --- | --- | --- | --- | --- | --- | --- | --- | --- | --- | --- |
| 1620 | 1020 | 198 | 153 | 171 | 165 | 1330 | 1720 | 433 | > 2000 | 154 | > 2000 | CCc1cccc(CC)c1NC(=O)c1nn(C)c2c1CCc1cnc(Nc3ccc(C(=O)NC4CCN(C)CC4)cc3OC(F)(F)F)nc1-2 |
| 3060 | > 5000 | 719 |  | 560 |  | 3850 | 2740 | 1340 | > 5000 |  | > 5000 | COc1cc(OC2CCN(C)CC2)ccc1Nc1ncc2c(n1)n(C1CCCC1)c(=O)n2C |
| 3230 | 7930 | 2420 |  | 1620 |  | 4790 | 6790 | 3420 | 5400 |  | 8970 | COc1cc(N2CCC(O)CC2)ccc1Nc1nc(Nc2ccccc2S(=O)(=O)C(C)C)c2nc[nH]c2n1 |
